From patent US20150366827A1, “COMPOSITIONS AND METHODS FOR MIXING AND APPLYING MIXED OXIDANT COMPOSITIONS FOR DAIRY ANIMAL TREATMENT” (GEA Farm Technologies, Inc., priority 2009, published 2015) come the findings set out here.

A short description of data set [1]: Loss of mixed oxidant activity on exposure to additives (iodometric thiosulfate titration). Details: % Loss of mixed oxidant activity at (23° C.) / % Loss of Activity at (23° C.): concentration or dose not given beside the values. Format: physicochemical. As to conditions: for % Loss of mixed oxidant activity after 24 hours at (23° C.) exposure to mixed oxidant: emollients, beginning mixed oxidant 3800-4100 ppm as available chlorine. As for the experimental part:
The activity of a mixed oxidant system is preferably measured with an iodometric titration by the addition of excess iodide and acid and titration of the resulting iodine (in the form of triiodide) with sodium thiosulfate. This method can measure the various oxidants in the mixture, comprising chlorine.
(§1) A teat dip composition is defined as stable when the activity of the mixed oxidant decreases by less than about 25% over a 12 hour to 72 hour period. The Tables 1 through 3, and 5 below show the stability of mixed oxidants when exposed to various additives for 12 hours to 96 hours. […] In each Table 1 through 5, the beginning mixed oxidant titrated at between 3800 ppm to 4100 ppm measured as available chlorine.

A short description of data set [2]: Loss of color of colorants exposed to mixed oxidant, judged on teat. The class given is physicochemical, dairy animal. As for the experimental part: as §1
Colorants are added to teat dips to provide a visual indicator that a teat dip was applied to a diary animal teat.
Preferably, a stable colorant is added to the teat sanitizer composition, but the colorant must be visible on the teat at the Ready-to-Use concentration. Some colorants are unacceptable because they are stable in their color in solution, but they are not visible on the teat after an exposure to the mixed oxidant for a period of time.

[3] abbreviates: chelators, 0.1 days exposure to mixed oxidant, 23° C.

As to `O=C([O-])[C@H](O)[C@@H](O)[C@H](O)[C@H](O)CO.[Na+]` [Sodium Gluconate], the “% Loss of mixed oxidant activity at (23° C.)” value in data set [1] (setting [3]) came to 90%.
Consider `COc1cc(S(=O)(=O)[O-])c(C)cc1N=Nc1c(O)ccc2cc(S(=O)(=O)[O-])ccc12.[Na+].[Na+]` [FD&C Red #40], for which the “Color intensity on teat after 1 day exposure to 4000 ppm mixed oxidant” value (“Color intensity on teat” below) in data set [2] was “Clear”.
For the compound EDTA 100, the “% Loss of mixed oxidant activity at (23° C.)” value in data set [1] (setting [3]) turned out to be 94%.
Take `OC[C@@H](O)[C@@H](O)[C@H](O)[C@@H](O)CO` [Sorbitol]: in data set [1] (23° C.), the “% Loss of mixed oxidant activity after 24 hours at (23° C.) exposure to mixed oxidant” value (“% Loss … to mixed oxidant” for short) was found to be 78%.
`CCCCCCCCCCCCCCCCCC(=O)OCCCCCCCC` [Octyl stearate]: in data set [1] (23° C.), the “% Loss … to mixed oxidant” value was 11%.
Regarding `CN(C)c1ccc2nc3ccc(=[N+](C)C)cc-3sc2c1` [Methylene Blue], the “Color intensity on teat” value in data set [2] is given as “Clear”.
For the compound `OCC(O)CO` [Glycerin], the “% Loss … to mixed oxidant” value in data set [1] (23° C.) was 97%.
Take `CC(O)CO` (stereo not drawn) [Propylene glycol]: the “% Loss … to mixed oxidant” value stood at 71% in data set [1] (23° C.) and 7% in data set [1] (23° C., listed as Propylene Glycol).
As to Cocamido propyl betaine, in data set [1] (surfactants, 1 day exposure to mixed oxidant, 23° C.), the “% Loss of mixed oxidant activity at (23° C.)” value was 56%.
Take `O=C([O-])C1=NN(c2ccc(S(=O)(=O)[O-])cc2)C(=O)C1N=Nc1ccc(S(=O)(=O)[O-])cc1.[Na+].[Na+].[Na+]` (stereo not drawn) [Yellow #5]: the “Color intensity on teat” value in data set [2] is reported as “Clear”. For the same compound, the “Visibility of the dye once applied to a dairy animal teat” value in data set [2] (after exposure to mixed oxidant) is “unacceptable”. In addition, the “Color in the composition after exposure to the mixed oxidant” value in data set [2] (in solution, after exposure to mixed oxidant) is recorded as “still has some color”.
On to `CC(C)CCCCCCCCCCCCCCC(=O)OC(C)C` [Isopropyl Isostearate], for which the “% Loss … to mixed oxidant” value in data set [1] (23° C.) was 11%.
With `O=S(=O)([O-])c1ccc(N=Nc2c(O)ccc3cc(S(=O)(=O)[O-])ccc23)cc1.[Na+].[Na+]` [Yellow #6], the “Color intensity on teat” value in data set [2] is given as “Clear”.
As for `CCN(Cc1cccc(S(=O)(=O)[O-])c1)c1ccc(C(=C2C=CC(=[N+](CC)Cc3cccc(S(=O)(=O)[O-])c3)C=C2)c2ccccc2S(=O)(=O)[O-])cc1.[Na+].[Na+]` [FD&C Blue 1], the “Color intensity on teat” value in data set [2] is recorded as “Clear”.
On to Nonylphenol ethoxylate, for which the “% Loss of mixed oxidant activity at (23° C.)” value in data set [1] (surfactants, 2 days exposure to mixed oxidant, 23° C.) is on record as 55%.
As for `O=P(O)(O)OP(=O)(O)OP(=O)(O)O` [Na, sodium Tripolyphosphate], the “Stability of chelator with mixed oxidant (in words)” value in data set [1] (chelators compatible with mixed oxidant) was “stable”. The “% Loss of mixed oxidant activity at (23° C.)” value in data set [1] (chelators, 2 days exposure to mixed oxidant, 23° C.) is 3.5%.
Consider `CCCCCCCCCCCCc1ccc(S(=O)(=O)O)cc1` [DDBSA, dodecylbenzenesulfonic acid], for which the “% Loss of Activity at (23° C.)” value in data set [1] (antimicrobials, 2 days exposure to mixed oxidant, 23° C.) stood at 6%.
On to `CC(C)CCCCCCCCCCCCCCCOC(=O)CCCCC(=O)OCCCCCCCCCCCCCCCC(C)C` [Diisostearyl Adipate], for which the “% Loss … to mixed oxidant” value in data set [1] (23° C.) turned out to be 13%.
